Patent publication US10155742B2, “Halofuginol derivatives and their use in cosmetic and pharmaceutical compositions” (President and Fellows of Harvard College, priority 2012, dated 2018)
“Also recorded” adds a separate entry of the source. Like-named read-outs stand apart in the source and are kept apart here. Each block holds one compound with its values, some of them ahead of it.

Legend:
[1] = test system: translation in rabbit reticulocyte lysate (RRL); assay: In vitro translation assay in rabbit reticulocyte lysate (RRL); conditions: for inhibition of translation of luciferase RNA in RRL: luminescence assay, FIG. 2A/2B
P. falciparum (Dd2) = assay: In vitro P. falciparum viability assay with excess proline; format: cell-based, Plasmodium falciparum; conditions: Dd2 strain in red blood cells, relative to unmodified RPMI, FIG. 23
Protocol: The activity of halofuginone and amodiaquine as inhibitors of P. falciparum growth was tested in erythrocytes in RPMI with or without excess amino acids as indicated, and IC50 values were normalized to IC50 values obtained under standard conditions using unmodified RPMI (numbers in bold). The absolute IC50 values for halofuginone and amodiaquine for RPMI are reported in parentheses. Fold amino acid indicated (e.g., “5×”) is relative to the concentration of the respective amino acid in RPMI. Fold concentration of D-Pro and L-Orn are relative to L-Pro.
In vitro potency against P. falciparum (DD2) was assessed using a modified version of the method of Plouffe and coworkers (Plouffe et al. Proc. Natl. Acad. Sci. USA 105:9059-64 (2008)). Parasites were cultured in the presence of drug in RPMI (Sigma) containing 4.16 mg/ml Albumax in a total volume of 50 μl at a 2.5% hematocrit and an initial parasitemia of 0.3% in black Greiner GNF clear-bottom plates. Cultures were incubated 72 hr at 37° C. under […], 4% CO2 and 3% O2. At the end of the incubation, SYBR green was added to a dilution of 1:10,000 and plates were stored overnight (or until ready to be read) at −80° C. Just before reading, plates were centrifuged at 700 rpm and fluorescence was read using 480 nm excitation and 530 nm emission frequencies. Compound concentrations that inhibit parasite replication reduce the fluorescence intensity of SYBR green bound to parasite DNA.

[2] = test system: Th17 cell differentiation (primary murine CD4+ CD25- T cells); assay: Th17 differentiation of T cells; format: cell-based, mouse; conditions: 6 nM (3 ng/mL) borrelidin, FIG. 19
Protocol: A) Primary murine CD4^+ CD25^− T cells were activated through the T-cell receptor in Th17 polarizing conditions (Sundrud et al. Science 324:1334-8 (2009)) in the presence of either 10 nM MAZ1310 or HF and the following amino acid supplements: 10× concentration of essential (EAA) or non-essential (NEAA) amino acids mixtures (Biowhittaker or Invitrogen, respectively), or 10× concentrations (1 mM) of indicated individual amino acids. Data are presented as mean percentage of Th17 (IL-17+ IFNg−) cells +/−SD from triplicate wells. B) Th17 differentiation was assayed as described above, in the absence or presence of HF or borrelidin, with or without 1 mM threonine or proline supplementation. C) MEFs were treated with or without HF (50 nM) and/or proline (2 mM) for 4 hours (CHOP, S100A4) or 24 hours (ColIA1, Col1A2). mRNA expression was normalized to expression of TBP and is shown relative to untreated control. […] Confidence intervals (p-value) for the effect of HF alone versus HF+Pro were determined using a two-tailed Student's t test. […] D) Cells were pre-incubated for 24 hours with HF and proline as indicated, and secretion of Type I procollagen was measured after 24 hours in conditioned medium of cells plated by Western blot and quantitated using Image J software (top panel). Total protein synthesis was measured as TCA-precipitable ^35S in a scintillation counter (bottom panel). […]

[3] = molecular target: T1, ProRS (amino acids 998-1513 of human EPRS) (Homo sapiens, UniProt P07814); assay: [3H]-HFol binding to immobilized ProRS; conditions: for inhibition of [3H]-HFol binding to ProRS: FIG. 4A
T1 construct: Purified 6-his tagged ProRS (amino acids 998-1513 of human EPRS) was immobilized on N-NTA beads; made in house; host or cells: E. coli BL21(DE3), plasmid pKS509
T1 sequence (P07814 998-1512 limits assumed): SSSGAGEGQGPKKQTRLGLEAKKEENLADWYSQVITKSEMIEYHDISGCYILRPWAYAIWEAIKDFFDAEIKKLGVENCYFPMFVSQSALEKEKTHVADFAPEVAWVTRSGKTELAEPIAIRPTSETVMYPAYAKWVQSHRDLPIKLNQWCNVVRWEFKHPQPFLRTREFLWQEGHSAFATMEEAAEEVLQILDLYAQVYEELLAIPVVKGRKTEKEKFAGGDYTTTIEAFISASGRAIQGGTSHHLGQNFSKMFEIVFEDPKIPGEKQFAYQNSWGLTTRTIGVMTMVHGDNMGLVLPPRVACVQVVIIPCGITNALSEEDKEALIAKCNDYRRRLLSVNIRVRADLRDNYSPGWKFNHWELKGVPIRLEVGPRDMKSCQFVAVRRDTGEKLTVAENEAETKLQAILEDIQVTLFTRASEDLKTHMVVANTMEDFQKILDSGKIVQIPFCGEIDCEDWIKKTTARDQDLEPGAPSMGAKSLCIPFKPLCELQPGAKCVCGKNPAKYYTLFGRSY
Protocol: B) [^3H]-HFol binding was assayed as described above in the presence of indicated concentrations of proline. […] IMR90 lung fibroblasts were treated with a siRNAs directed against EPRS (Dharmacon) or a control siRNA mixture for 48 hours, and then treated with HF for 2 hours (pGCN2) and examined for EPRS protein levels, GCN2 total protein and phospho-GCN2 by Western blot. D) EPRS depleted IMR90 cells were compared to control cells with respect to HF induction of the AAR marker CHOP by Q-PCR. Equal concentrations of total cellular protein were loaded in each Western blot lane. CHOP expression was standardized to expression of phosphoglycerate kinase 1 (PGK1) and glyceraldehyde-3-phosphate-dehydrogenase (GAPDH). Data shown are representative of three separate experiments.
Prolyl sulfamoyl adenosine (ProSAd) or alanyl sulfamoyl adenosine (AlaSAd), analogs of the corresponding aminoacyl adenylate, were coincubated with [^3H]-HFol as in FIG. 2. […] Binding of [^3H]-HFol was assayed as in FIG. 3, except that the nucleotide type and concentration was varied as indicated.
To examine HF binding to ProRS, ^3H HFol was synthesized by American Radiochemicals (St. Louis) by reduction of MAZ1310 (3) at the ketone with NaB^3H4, followed by removal of the Boc protecting group with 10% trifluoroacetic acid in dichloromethane, and HPLC purification of the ^3H HFol. 100 nM ^3H HFol was incubated with ProRS immobilized on Ni-NTA beads (Pierce) in 50 mM Tris pH 7.5, 5 mM MgCl2, 20 mM Imidazole, 1 mM DTT, 10% glycerol, and nucleotides, proline, or HF derivatives at room temperature for 10 minutes as indicated. After incubation, beads were washed twice with ice-cold wash buffer (50 mM Tris 7.5; 20 mM Imidazole; 1 mM DTT, 20% glycerol). ^3H HFol bound after washing was measured by liquid scintillation counting. Ni-NTA beads incubated with E. coli extracts lacking tagged ProRS were used as a background reference in all experiments.

[4] = molecular target: T2, prolyl tRNA synthetase domain of human EPRS (ProRS) (Homo sapiens, UniProt P07814)
T2 sequence (P07814 998-1512 limits assumed): T1 sequence (P07814 998-1512 limits assumed)

[5] = test system: primary human prostate stromal (hPrSc) cells, col1a1; assay: Type I collagen (col1a1) mRNA in primary human prostate stromal cells; format: cell-based; conditions: treated twice for 48 hours, FIG. 27
Protocol: (§1) Primary human prostate stromal (hPrSc) cells were left in low-serum media (0.2%) for 24 hours, and treated consecutively twice for 48 hours, halofuginone (HF) or halofuginol (HFol) at the concentrations indicated. Relative mRNA levels of the myofibroblastic markeralpha 1 collagen type 1 (col1a1) was measured by quantitative real-time PCR using glyceraldehyde-3-phosphate dehydrogenase (GAPDH) as internal control.

[6] = test system: primary human prostate stromal (hPrSc) cells, s100a4; assay: S100A4 mRNA in primary human prostate stromal cells; format: cell-based; conditions: with or without TGF 10 ng/ml, FIG. 28
Protocol: as §1, with “48 hours with or without tumor-growth factor beta (TGF; 10 ng/ml),” for “48 hours,”, “the fibrosis/tissue invasion marker s100a4” for “the myofibroblastic markeralpha 1 collagen type 1 (col1a1)”

[7] = inhibitor 1 μM, anti-myc Western blot, FIG. 2C

SMILES: O=C(C[C@H]1NCCC[C@@H]1O)Cn1cnc2ccccc2c1=O [FF, febrifugine]
- translation of Nopropep (proline-free polypeptide) [1, 7]: no effect
- translation of Propep (proline dipeptide containing polypeptide) [1, 7]: prevent translation
- inhibition of translation of luciferase RNA in RRL [1]: inhibited
- fold increase of effective IC50 on addition of 5× proline (P. falciparum (Dd2)): ~5 fold

SMILES: C[C@@H]1C[C@H](C)C[C@H](C)[C@@H](O)CC(=O)O[C@H]([C@@H]2CCC[C@H]2C(=O)O)C/C=C/C=C(/C#N)[C@H](O)[C@@H](C)C1 [borrelidin]
- inhibition of Th17 cell differentiation [2]: selectively inhibits
- inhibition of Th17 cell differentiation ([2]; listed as Borrelidin): inhibited

SMILES: O=C(C[C@@H]1NCCC[C@H]1O)Cn1cnc2cc(Br)c(Cl)cc2c1=O (single isomer, unassigned) [2S,3R isomer of HF]
- inhibition of translation of luciferase RNA in RRL [1]: no activity

- fold increase of effective IC50 on addition of 5× proline (P. falciparum (Dd2)): did not affect
SMILES: CCN(CC)Cc1cc(Nc2ccnc3cc(Cl)ccc23)ccc1O [amodiaquine]

SMILES: [3H][C@@](O)(C[C@H]1NCCC[C@@H]1O)Cn1cnc2cc(Br)c(Cl)cc2c1=O [[^3H]-HFol]
- direct binding to immobilized ProRS ([3]; 5 mM MgCl2, 2 mM ATP, 10 min RT): bound directly

- inhibition of translation of luciferase RNA in RRL [1]: no activity
SMILES: CC(C)(C)OC(=O)N1CCC[C@H](O)[C@H]1CC(=O)Cn1cnc2cc(Br)c(Cl)cc2c1=O [MAZ1310]
- inhibition of ProRS activity ([4]; 14C Proline used as trace label, FIG. 9): does not block; also recorded: no inhibitory effect

SMILES: C[C@H](N)C(=O)NS(=O)(=O)OC[C@H]1O[C@@H](n2cnc3c(N)ncnc32)[C@H](O)[C@@H]1O [AlaSAd, alanyl sulfamoyl adenosine]
- inhibition of [3H]-HFol binding to ProRS ([3]; 50 nM competitor): partially inhibited

SMILES: Nc1ncnc2c1ncn2[C@@H]1O[C@H](COS(=O)(=O)NC(=O)[C@@H]2CCCN2)[C@@H](O)[C@H]1O [ProSAd, 5-O—[N-(L-prolyl)-sulfamoyl]adenosine]
- inhibition of [3H]-HFol binding to ProRS ([3]; 10 nM competitor): inhibited

SMILES: O=c1c2cc(Cl)c(Br)cc2ncn1C[C@@H](O)C[C@H]1NCCC[C@@H]1O [HFolA, halofuginol]
- inhibition of ProRS activity ([4]; 3H Pro incorporation into tRNA): active; also recorded: inhibits; also recorded: potent inhibitor

SMILES: O=c1c2cc(Cl)c(Br)cc2ncn1C[C@H](O)C[C@H]1NCCC[C@@H]1O [HFolA, halofuginol]
- Type 1 collagen expression in fibroblasts in culture [5]: inhibit
- expression of the activated fibroblast marker S100A4 [6]: inhibit
- inhibition of ProRS (EPRS) activity ([4]; 100 μM Pro, FIG. 13): inhibits; also recorded: potency similar to the parent compound
